# “And” between values parts separate entries of the source, which are not always exact repeats. Equal entries are not always repeated.
# Assay: Single dose 300 mg / 450 mg pharmacokinetic, safety and tolerability study in healthy male and female subjects
# Settings: for Cmax / half-life / Tmax / AUC(0-t) / concentration at 0 h / concentration at 0.5 h / concentration at 1 h / concentration at 2 h / concentration at 3 h / concentration at 4 h / concentration at 6 h / concentration at 8 h / concentration at 10 h / concentration at 12 h / concentration at 18 h / concentration at 24 h / concentration at […]: human, plasma
# Excerpt: Fourteen subjects, divided equally between males and females, were enrolled in the study and randomized between test article (5/sex) and placebo (2/sex). […] All subjects met the inclusion and exclusion criteria for entry into the study as detailed in the protocol and signed an informed consent form.
# The subjects were confined to the clinical study site from Day −1 to the morning of Day 2, when they underwent a brief physical examination, clinical laboratory tests, and a physician visit before they were discharged. On Day 7, they reported to the clinical site again and were confined to the site until the morning of Day 9. At that time, they underwent a complete physical examination, clinical laboratory tests, and a physician's visit before they were discharged from the study. All subjects were fasted overnight on Days −1 and 7 from approximately 22:00 to approximately 4 hours post-dose on Days 1 and 8, at which time they received a standard lunch.
# Subjects that received the placebo (2/sex) ingested six identical looking capsules with no drug. […] Capsules on both days were ingested with 240 mL water. […] Samples were collected into lithium heparin-containing Vacutainers® and centrifuged at approximately 3000 rpm to obtain the plasma fraction. The plasma was split into two polypropylene tubes and stored at −20° C. […] The urine volumes were recorded and an aliquot was stored for drug concentration measurements.
# Validated LC/MS/MS assays were used for analyses; the assay range for both analytes in plasma and urine were 5.00 to 2000 ng/mL.
# Plasma concentration-time data for each subject were analyzed with WinNonlin, version 4.1 (Pharsight Corporation, Mountain View, Calif.) using a non-compartmental model. […] Plasma concentrations listed as not detected (ND) or below the lower limit of quantitation (LLOQ) were set to zero. The values of Cmax and Tmax were the observed values for each subject. AUC0-t was determined using the linear trapezoidal rule whenever the concentration data were increasing and the logarithmic trapezoidal rule any time that the concentration data were decreasing. The apparent λz was calculated as the negative slope of the log-linear terminal portion of the blood concentration-time curve using linear regression. To allow for accurate calculation of λz, a minimum of three observations, selected by WinNonlin, was used. The t½ was calculated as ln 2/λz. AUC0-t was extrapolated to infinity (AUC0-∞) as follows: AUC0-∞=AUC0-t+Clast/λz where Clast is the last quantifiable concentration. The apparent oral clearance (CL/F) was calculated as Dose/AUC0-∞. The apparent oral volume of distribution (Vz/F) was calculated as Dose/λz×AUC0-∞. The mean residence time from time zero to infinity (MRT0-∞) was calculated as AUMC0-∞/AUC0-∞.
compound,measurement,setting,value
"O=C1NCC2(c3ccc(Cl)c(Cl)c3)CC12 (stereo not drawn) [EB-10101, 5-(3,4-dichloro-phenyl)-3-aza-bicyclo[3.1.0]hexan-2-one]",AUC24-∞ as share of total exposure,300 mg,38%
same,concentration at 24 hr as % of Cmax,300 mg,50%
same,ingested dose in urine as lactam (0-24 hr),300 mg,0.075%
same,AUC24-∞ as share of total exposure,450 mg,54%
same,concentration at 24 hr as % of Cmax,450 mg,65%
same,ingested dose in urine as lactam (0-24 hr),450 mg,0.067%
same,Cmax,"both, oral, 300 mg",2030 ng/mL
same,half-life,"both, oral, 300 mg, harmonic mean of half-life of lactam",858 min
same,Cmax,"both, oral, 450 mg",2950 ng/mL
same,Tmax,"both, oral, 450 mg",7.8 to 9 h
same,half-life,"both, oral, 450 mg, harmonic mean of half-life of lactam",1190 min
same,AUC(0-t),"both, po, 300 mg",33300 ng·h/mL
same,Cmax,"both, po, 300 mg",2030 ng/mL
same,Tmax,"both, po, 300 mg",7.8 h
same,concentration at 0 h,"both, po, 300 mg",0 ng/mL
same,concentration at 0.5 h,"both, po, 300 mg",42.8 ng/mL
same,concentration at 1 h,"both, po, 300 mg",296 ng/mL
same,concentration at 2 h,"both, po, 300 mg",900 ng/mL
same,concentration at 3 h,"both, po, 300 mg",1410 ng/mL
same,concentration at 4 h,"both, po, 300 mg",1540 ng/mL
same,concentration at 6 h,"both, po, 300 mg",1690 ng/mL
same,concentration at 8 h,"both, po, 300 mg",1900 ng/mL
same,concentration at 10 h,"both, po, 300 mg",1830 ng/mL
same,concentration at 12 h,"both, po, 300 mg",1580 ng/mL
same,concentration at 18 h,"both, po, 300 mg",1390 ng/mL
same,concentration at 24 h,"both, po, 300 mg",1010 ng/mL
same,concentration at […],"both, po, 300 mg",1.52 ng/mL and 175 ng/mL and 473 ng/mL and 589 ng/mL
same,half-life,"both, po, 300 mg, t½ (Harmonic mean), single oral 300 mg DOV 21,947 HCl IR, N = 10",858 min
same,half-life,"both, po, 300 mg, t½, single oral 300 mg DOV 21,947 HCl IR, arithmetic mean, N = 10",924 min
same,AUC(0-t),"both, po, 450 mg",50700 ng·h/mL
same,Cmax,"both, po, 450 mg",2950 ng/mL
same,Tmax,"both, po, 450 mg",9 h
same,concentration at 0 h,"both, po, 450 mg",0 ng/mL
same,concentration at 0.5 h,"both, po, 450 mg",71 ng/mL
same,concentration at 1 h,"both, po, 450 mg",337 ng/mL
same,concentration at 2 h,"both, po, 450 mg",1330 ng/mL
same,concentration at 3 h,"both, po, 450 mg",1820 ng/mL
same,concentration at 4 h,"both, po, 450 mg",2160 ng/mL
same,concentration at 6 h,"both, po, 450 mg",2520 ng/mL
same,concentration at 8 h,"both, po, 450 mg",2670 ng/mL
same,concentration at 10 h,"both, po, 450 mg",2770 ng/mL
same,concentration at 12 h,"both, po, 450 mg",2620 ng/mL
same,concentration at 18 h,"both, po, 450 mg",2010 ng/mL
same,concentration at 24 h,"both, po, 450 mg",1920 ng/mL
same,concentration at […],"both, po, 450 mg",0 ng/mL and 184 ng/mL and 646 ng/mL and 807 ng/mL
same,half-life,"both, po, 450 mg, t½ (Harmonic mean), single oral 450 mg DOV 21,947 HCl IR, N = 10",1190 min
same,half-life,"both, po, 450 mg, t½, single oral 450 mg DOV 21,947 HCl IR, arithmetic mean, N = 10",1960 min
same,AUC(0-t),"female, po, 300 mg",37300 ng·h/mL
same,Cmax,"female, po, 300 mg",2320 ng/mL
same,Tmax,"female, po, 300 mg",9.2 h
same,concentration at 0 h,"female, po, 300 mg",0 ng/mL
same,concentration at 0.5 h,"female, po, 300 mg",22.8 ng/mL
same,concentration at 1 h,"female, po, 300 mg",188 ng/mL
same,concentration at 2 h,"female, po, 300 mg",760 ng/mL
same,concentration at 3 h,"female, po, 300 mg",1340 ng/mL
same,concentration at 4 h,"female, po, 300 mg",1600 ng/mL
same,concentration at 6 h,"female, po, 300 mg",1870 ng/mL
same,concentration at 8 h,"female, po, 300 mg",2210 ng/mL
same,concentration at 10 h,"female, po, 300 mg",1980 ng/mL
same,concentration at 12 h,"female, po, 300 mg",1760 ng/mL
same,concentration at 18 h,"female, po, 300 mg",1690 ng/mL
same,concentration at 24 h,"female, po, 300 mg",1190 ng/mL
same,concentration at […],"female, po, 300 mg",0 ng/mL and 111 ng/mL and 317 ng/mL and 426 ng/mL
same,half-life,"female, po, 300 mg, t½ (Harmonic mean), single oral 300 mg DOV 21,947 HCl IR, N = 5",900 min
same,half-life,"female, po, 300 mg, t½, single oral 300 mg DOV 21,947 HCl IR, N = 5, arithmetic mean",930 min
same,AUC(0-t),"female, po, 450 mg",55300 ng·h/mL
same,Cmax,"female, po, 450 mg",3360 ng/mL
same,Tmax,"female, po, 450 mg",8.8 h
same,concentration at 0 h,"female, po, 450 mg",0 ng/mL
same,concentration at 0.5 h,"female, po, 450 mg",35.2 ng/mL
same,concentration at 1 h,"female, po, 450 mg",285 ng/mL
same,concentration at 2 h,"female, po, 450 mg",1030 ng/mL

# Reference: patent US20160346249A1 (priority 2012, published 2016)
